Experimental data as given in the Kinase Knowledgebase extract (Sharma et al. 2016).
“And” between values parts separate entries of the source, which are not always exact repeats. Identical values can stand only once.

Legend:
MAPK14 (rat) [1] = assay: Cell-Based Assay; settings: mesencephalic neurons
MAPK14 (rat) [2] = assay: Animal Model; settings: mesencephalon tissue
MAPK14 (rat) [3] = assay: Cell-Based Assay; settings: mesencephalic neurons; remark: listed apart in the source

| SMILES | cell count (MAPK14 (rat) [1]) [cm-2] | response (MAPK14 (rat) [1]) | cell count (MAPK14 (rat) [2]) | cell count (MAPK14 (rat) [3]) [cm-2] | response (MAPK14 (rat) [3]) [cm2] |
| --- | --- | --- | --- | --- | --- |
| Oc1ccc(-c2nc(-c3ccc(F)cc3)c(-c3ccncc3)[nH]2)cc1 | 283 | 600 cm2 and 473 cm2 | – | – | – |
| O=[N+]([O-])c1ccc(-c2nc(-c3ccc(F)cc3)c(-c3ccncc3)[nH]2)cc1 | 283 | 400 cm2 and 570 cm2 | 3020 | 421 | 454 |
